# Assay results from patent US7973075B2, “Kainate receptor-selective epimeric analogs of dysiherbaine” (priority 2007, dated 2011).
# Where “and” joins values, the source holds several entries; their conditions need not be identical. Equal entries are not always repeated. Where two headings read alike, the source gives them in different places.
# Tests used:
# [1] = molecular target: T1, GluR1(i) (Rattus norvegicus, UniProt P19490); assay: Radioligand binding ([3H]AMPA displacement), HEK-293-T/17 membranes, Example 2; conditions: Cheng-Prusoff
# T1 construct: expressed in transfected cells; host or cells: HEK-293-T/17
# Method: (§1) Radioligand binding. Membrane preparations from HEK-293-T/17 cells were prepared and used in radioligand binding assays as described previously (Sanders et al., 2005). Unlabeled analogs were used to displace [3H]kainate (10-20 nM, PerkinElmer Life and Analytical Sciences, Boston, Mass.) or [3H]AMPA (20 nM, PerkinElmer Life and Analytical Sciences, Boston, Mass.) from KARs and AMPARs, respectively. Nonspecific binding was determined in the presence of 1 mM glutamate. After 1 hour incubation at 4° C., samples were harvested by rapid filtration onto Whatman GF/C membranes. Upon addition of scintillation fluid, membranes were incubated for 1 hour at room temperature. A Beckman LS5000TD scintillation counter was used for quantification (Beckman Coulter Inc., Fullerton, Calif.). Data were plotted and fit with a one-site competition curve with fixed minima and maxima using Prism 4 (GraphPad Software, Inc). Ki's were calculated with the Cheng-Prusoff equation using the determined IC5o values and the radioligand Kd. Data were plotted and fit with a one-site competition curve with fixed minima (0) and maxima (100) (Prism4, GraphPad Software, Inc.). Correlation analysis was performed with these binding data and the seizure activity of each analog, represented as ED50 values.
# (§2) The pharmacological profiles of the Group I analogs, 8-deoxy-neoDH and 9-deoxyneoDH, were analyzed initially in radioligand binding experiments with expressed recombinant AMPA and kainate receptor subunits. Displacement of [3H]kainate from cell membranes with a range of analog concentrations yielded IC50 values that were then used to calculate Ki values for each analog/receptor combination. Both Group 1 analogs retained high affinity only for GluR5-2a KAR subunits (FIG. 8A). […] Weak binding to other KAR and AMPAR subunits was observed, with all Ki values estimated at >10 μM (n=3-5; Table 3, FIG. 8A).
# (§3) For comparison, the Ki values for neoDH and MSVIII-19 are included in the table (Sanders et al., 2005). Removal of the C9 hydroxyl eliminated binding to all receptor subunits (Ki values estimated at >100 μM), with the exception of GluR5-2a KARs.
# [2] = molecular target: T2, GluR2(i) (Rattus norvegicus, UniProt P19491); assay: as above; conditions: Cheng-Prusoff
# T2 construct: expressed in transfected cells; host or cells: HEK-293-T/17
# Method: as §1, §2, §3
# [3] = tested on: mice; conditions: Shoji et al., 2006, cited from earlier work; for ED50 seizure activity: i.c.v. injection, mice; for convulsant behavior, from the literature: i.c.v., Sasaki et al., 1999, Sakai et al., 2001a
# [4] = molecular target: T3, GluR6 (Rattus norvegicus, UniProt P42260); assay: Radioligand displacement ([3H]kainate), Example 1; type: binding
# T3 construct: expressed in transfected cells; HEK 293 (patch clamp)
# Method: (§4) Dysiherbaine (DH) was used as a template for generating novel KAR ligands. (See FIG. 1.) These included 8-deoxy and 9-deoxy analogs of neodysiherbaine (neoDH). (See FIG. 2.) The binding of these analogs to glutamate receptors was assessed by radioligand binding as follows. Membrane preparations from COS-7 or HEK-T/17 cells were isolated 2-3 days after transfection. Displacement assays were performed as described previously (Swanson et al., NEURON 1997; 19:913-26). Unlabeled marine toxin analogs were used to displace [^3H]kainate or [^3H]AMPA (PerkinElmer) from kainate and AMPA receptors, respectively. (See FIG. 2 and Table 1.)
# (§5) Non-specific binding was defined in the presence of 1 mM glutamate. The effect of these analogs on electrophysiology was assessed as follows. HEK 293 cells were transfected with receptor cDNAs in combination with eGFP cDNA. Patch-clamp recordings from transfected cells were made 24-72 hours later using a fast application system described previously (Swanson et al., NEURON 1997; 19:913-26). (See FIG. 3.)
# (§6) Additional epimer analogs were generated. These included 4-epi-neodysiherbaine, 8-epi-neodysiherbaine, 9-epi-neodysiherbaine, and 8,9-epi-neodysiherbaine. (See FIG. 4.) The binding of these analogs to glutamate receptors was assessed by radioligand binding as described above. (See FIG. 4 and Table 2.)
# [5] = molecular target: T4, KA2 (Rattus norvegicus, UniProt Q63273); assay: Radioligand displacement ([3H]kainate), Example 1; type: binding
# T4 construct: expressed in transfected cells; host or cells: HEK-293-T/17
# T4 sequence (Q63273 15-979): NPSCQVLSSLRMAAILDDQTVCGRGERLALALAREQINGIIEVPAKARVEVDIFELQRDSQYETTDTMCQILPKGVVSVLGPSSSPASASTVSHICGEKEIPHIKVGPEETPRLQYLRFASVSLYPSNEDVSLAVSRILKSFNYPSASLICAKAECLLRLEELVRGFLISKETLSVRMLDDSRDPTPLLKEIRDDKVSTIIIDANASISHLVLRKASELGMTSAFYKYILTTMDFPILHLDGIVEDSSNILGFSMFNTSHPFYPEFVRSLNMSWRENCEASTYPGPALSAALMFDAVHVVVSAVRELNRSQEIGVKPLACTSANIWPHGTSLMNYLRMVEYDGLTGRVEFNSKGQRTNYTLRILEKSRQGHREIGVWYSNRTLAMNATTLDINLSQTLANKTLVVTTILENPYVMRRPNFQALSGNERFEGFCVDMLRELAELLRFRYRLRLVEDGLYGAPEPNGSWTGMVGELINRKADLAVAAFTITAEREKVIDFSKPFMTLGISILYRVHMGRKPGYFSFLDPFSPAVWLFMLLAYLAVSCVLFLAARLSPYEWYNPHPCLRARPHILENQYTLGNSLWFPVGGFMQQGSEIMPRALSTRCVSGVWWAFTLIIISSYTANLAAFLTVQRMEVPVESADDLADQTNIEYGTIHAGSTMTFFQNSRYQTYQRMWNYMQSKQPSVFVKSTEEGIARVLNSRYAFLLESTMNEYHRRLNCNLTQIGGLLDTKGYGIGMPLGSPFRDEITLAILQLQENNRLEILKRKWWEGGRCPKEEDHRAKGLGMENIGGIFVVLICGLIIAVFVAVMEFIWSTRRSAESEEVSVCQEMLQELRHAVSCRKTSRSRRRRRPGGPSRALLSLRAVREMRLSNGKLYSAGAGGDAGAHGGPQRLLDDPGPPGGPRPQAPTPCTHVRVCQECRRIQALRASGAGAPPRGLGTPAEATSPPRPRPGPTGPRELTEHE
# Method: as §4, §5, §6
# [6] = molecular target: T5, GluR5-2a (Rattus norvegicus, UniProt P22756, DEL402-416); assay: Radioligand binding ([3H]kainate displacement), HEK-293-T/17 membranes, Example 2; conditions: Cheng-Prusoff
# T5 construct: expressed in transfected cells; host or cells: HEK-293-T/17
# Method: as §1, §2, §3
# [7] = molecular target: T6, GluR6a (Rattus norvegicus, UniProt P42260); assay: as above; conditions: for Ki: [3H]kainate displacement, Cheng-Prusoff
# T6 construct: expressed in transfected cells; host or cells: HEK-293-T/17
# Method: as §1, §2, §3
# [8] = molecular target: T7, GluR7a (Rattus norvegicus, UniProt P42264); assay: as above
# T7 construct: expressed in transfected cells; host or cells: HEK-293-T/17
# Method: as §1, §2, §3
# [9] = molecular target: T4, KA2; assay: as above; conditions: Cheng-Prusoff
# Method: as §1, §2, §3
# [10] = Tables 1-2, read-out: GluR6 binding affinity (displacement of [3H]kainate)
# [11] = Tables 1-2, read-out: KA2 binding affinity (displacement of [3H]kainate)
# [12] = [3H]kainate displacement, Cheng-Prusoff, read-out: Ki GluR7a
# [13] = [3H]kainate displacement, read-out: Ki KA2
# T2 sequence (P19491 22-883 isoform P19491-2 limits assumed): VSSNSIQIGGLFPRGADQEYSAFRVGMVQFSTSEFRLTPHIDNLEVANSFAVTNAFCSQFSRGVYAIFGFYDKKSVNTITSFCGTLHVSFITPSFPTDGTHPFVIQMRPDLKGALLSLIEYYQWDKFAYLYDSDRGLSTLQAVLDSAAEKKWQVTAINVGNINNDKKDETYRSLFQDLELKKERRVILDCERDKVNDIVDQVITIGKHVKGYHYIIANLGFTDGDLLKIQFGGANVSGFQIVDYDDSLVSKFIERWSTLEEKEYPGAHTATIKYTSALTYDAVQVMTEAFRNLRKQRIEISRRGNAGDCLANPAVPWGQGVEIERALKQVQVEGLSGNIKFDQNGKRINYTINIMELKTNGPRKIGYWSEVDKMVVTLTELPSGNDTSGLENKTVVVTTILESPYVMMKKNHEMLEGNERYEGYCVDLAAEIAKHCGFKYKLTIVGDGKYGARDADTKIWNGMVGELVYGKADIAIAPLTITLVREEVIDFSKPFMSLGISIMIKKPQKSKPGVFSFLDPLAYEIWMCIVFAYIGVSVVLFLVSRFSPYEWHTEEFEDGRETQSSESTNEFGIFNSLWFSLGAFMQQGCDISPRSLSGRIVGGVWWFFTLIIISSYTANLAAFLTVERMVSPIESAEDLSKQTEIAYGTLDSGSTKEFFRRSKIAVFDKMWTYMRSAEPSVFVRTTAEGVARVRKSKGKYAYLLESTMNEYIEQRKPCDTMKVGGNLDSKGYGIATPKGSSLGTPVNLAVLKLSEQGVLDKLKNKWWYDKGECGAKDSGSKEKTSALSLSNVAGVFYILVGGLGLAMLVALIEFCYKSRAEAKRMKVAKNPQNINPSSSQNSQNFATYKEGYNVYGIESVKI
# T7 sequence (P42264 32-919): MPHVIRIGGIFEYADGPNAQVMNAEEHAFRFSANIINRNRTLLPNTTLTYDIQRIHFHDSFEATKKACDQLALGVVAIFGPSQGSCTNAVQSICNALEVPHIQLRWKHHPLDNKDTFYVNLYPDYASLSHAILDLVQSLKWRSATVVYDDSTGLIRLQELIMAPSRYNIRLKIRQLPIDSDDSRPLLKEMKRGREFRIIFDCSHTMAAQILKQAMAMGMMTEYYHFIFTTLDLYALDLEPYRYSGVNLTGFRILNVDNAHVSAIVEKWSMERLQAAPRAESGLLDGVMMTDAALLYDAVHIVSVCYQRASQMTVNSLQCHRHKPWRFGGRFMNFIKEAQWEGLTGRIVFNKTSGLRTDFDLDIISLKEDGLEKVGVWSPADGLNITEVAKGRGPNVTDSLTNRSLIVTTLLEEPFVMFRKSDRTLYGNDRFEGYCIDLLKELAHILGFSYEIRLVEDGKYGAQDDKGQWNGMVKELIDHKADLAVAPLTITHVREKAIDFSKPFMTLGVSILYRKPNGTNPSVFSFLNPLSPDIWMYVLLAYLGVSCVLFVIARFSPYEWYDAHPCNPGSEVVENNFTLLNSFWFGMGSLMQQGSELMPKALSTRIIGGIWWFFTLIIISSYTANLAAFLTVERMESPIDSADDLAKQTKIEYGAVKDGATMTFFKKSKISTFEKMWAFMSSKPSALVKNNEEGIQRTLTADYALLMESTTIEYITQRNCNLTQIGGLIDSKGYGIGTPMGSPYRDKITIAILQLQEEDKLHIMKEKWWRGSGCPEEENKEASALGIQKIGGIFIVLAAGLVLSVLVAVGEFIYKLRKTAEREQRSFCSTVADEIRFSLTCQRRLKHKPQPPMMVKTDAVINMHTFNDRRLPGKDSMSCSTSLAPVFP
# T5 sequence (P22756 with tags, fused parts or gaps isoform P22756-2 limits assumed, stated change not applied): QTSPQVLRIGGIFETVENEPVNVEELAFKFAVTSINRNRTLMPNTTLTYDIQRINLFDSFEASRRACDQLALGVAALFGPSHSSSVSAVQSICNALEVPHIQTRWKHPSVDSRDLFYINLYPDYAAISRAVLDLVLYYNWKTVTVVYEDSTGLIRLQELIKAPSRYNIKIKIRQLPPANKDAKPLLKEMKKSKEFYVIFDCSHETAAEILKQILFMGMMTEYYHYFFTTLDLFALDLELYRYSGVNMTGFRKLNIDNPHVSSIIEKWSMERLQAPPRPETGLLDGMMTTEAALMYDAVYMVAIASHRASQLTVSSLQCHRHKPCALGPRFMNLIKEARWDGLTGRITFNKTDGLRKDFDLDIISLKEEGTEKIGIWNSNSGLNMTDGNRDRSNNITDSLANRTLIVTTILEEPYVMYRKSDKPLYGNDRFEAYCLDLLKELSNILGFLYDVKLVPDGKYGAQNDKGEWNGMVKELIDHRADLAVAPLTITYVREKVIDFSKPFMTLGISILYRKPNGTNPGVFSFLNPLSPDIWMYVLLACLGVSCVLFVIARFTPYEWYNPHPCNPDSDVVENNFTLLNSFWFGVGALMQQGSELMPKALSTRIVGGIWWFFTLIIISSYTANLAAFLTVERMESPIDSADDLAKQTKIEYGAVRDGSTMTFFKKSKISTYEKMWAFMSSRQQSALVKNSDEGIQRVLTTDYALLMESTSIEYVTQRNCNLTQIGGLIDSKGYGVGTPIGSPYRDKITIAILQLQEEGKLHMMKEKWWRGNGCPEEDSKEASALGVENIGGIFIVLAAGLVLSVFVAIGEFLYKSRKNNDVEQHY
# T1 sequence (P19490 19-907 isoform P19490-2 limits assumed): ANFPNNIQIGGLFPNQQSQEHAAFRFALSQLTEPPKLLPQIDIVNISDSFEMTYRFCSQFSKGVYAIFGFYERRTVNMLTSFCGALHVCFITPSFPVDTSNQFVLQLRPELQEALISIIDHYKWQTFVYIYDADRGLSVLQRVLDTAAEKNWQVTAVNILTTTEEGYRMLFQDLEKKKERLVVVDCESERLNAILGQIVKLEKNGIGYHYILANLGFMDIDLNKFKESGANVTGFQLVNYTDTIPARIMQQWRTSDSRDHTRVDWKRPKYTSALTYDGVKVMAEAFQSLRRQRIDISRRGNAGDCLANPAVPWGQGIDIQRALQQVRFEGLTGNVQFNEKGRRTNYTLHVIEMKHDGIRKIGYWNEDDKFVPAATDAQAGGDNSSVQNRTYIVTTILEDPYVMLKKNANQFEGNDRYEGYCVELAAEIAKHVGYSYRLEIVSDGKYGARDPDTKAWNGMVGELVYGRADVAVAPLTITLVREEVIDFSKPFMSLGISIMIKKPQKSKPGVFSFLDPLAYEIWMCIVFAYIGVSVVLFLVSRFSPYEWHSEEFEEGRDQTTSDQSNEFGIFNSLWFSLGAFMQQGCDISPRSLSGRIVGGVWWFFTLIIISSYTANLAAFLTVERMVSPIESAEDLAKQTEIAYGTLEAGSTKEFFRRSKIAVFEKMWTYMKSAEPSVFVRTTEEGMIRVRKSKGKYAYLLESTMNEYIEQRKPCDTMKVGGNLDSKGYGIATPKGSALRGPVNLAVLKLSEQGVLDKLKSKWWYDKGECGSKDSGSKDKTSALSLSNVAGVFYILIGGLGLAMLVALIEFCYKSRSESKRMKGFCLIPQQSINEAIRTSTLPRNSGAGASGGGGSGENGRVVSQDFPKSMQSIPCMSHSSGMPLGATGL
# T6 sequence (P42260 32-908): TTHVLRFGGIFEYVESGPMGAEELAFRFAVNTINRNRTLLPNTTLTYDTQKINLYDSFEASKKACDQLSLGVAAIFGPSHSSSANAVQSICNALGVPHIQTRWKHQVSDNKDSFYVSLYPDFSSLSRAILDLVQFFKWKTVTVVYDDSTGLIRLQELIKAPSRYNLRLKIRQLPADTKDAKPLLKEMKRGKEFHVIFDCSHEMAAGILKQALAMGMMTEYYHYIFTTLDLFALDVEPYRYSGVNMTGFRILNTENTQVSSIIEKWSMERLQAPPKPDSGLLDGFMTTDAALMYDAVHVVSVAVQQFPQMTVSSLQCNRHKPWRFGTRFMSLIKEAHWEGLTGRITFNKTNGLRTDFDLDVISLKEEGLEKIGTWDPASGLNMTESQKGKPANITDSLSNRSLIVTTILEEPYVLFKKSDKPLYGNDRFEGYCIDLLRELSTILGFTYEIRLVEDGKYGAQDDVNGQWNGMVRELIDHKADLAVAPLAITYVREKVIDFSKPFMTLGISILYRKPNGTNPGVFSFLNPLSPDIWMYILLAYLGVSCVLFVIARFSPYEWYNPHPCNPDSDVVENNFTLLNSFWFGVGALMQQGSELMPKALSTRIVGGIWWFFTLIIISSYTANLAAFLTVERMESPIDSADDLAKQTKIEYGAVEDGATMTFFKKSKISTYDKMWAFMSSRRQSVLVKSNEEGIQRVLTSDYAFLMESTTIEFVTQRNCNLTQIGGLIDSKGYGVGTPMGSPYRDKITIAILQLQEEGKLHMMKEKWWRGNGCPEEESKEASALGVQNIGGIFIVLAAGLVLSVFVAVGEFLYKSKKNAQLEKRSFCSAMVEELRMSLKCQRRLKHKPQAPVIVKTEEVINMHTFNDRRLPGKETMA
# T3 sequence (P42260 32-908): as above
Structure (SMILES),Ki ([1]; read-out: Ki GluR1(i)) [µM],Ki ([2]; read-out: Ki GluR2(i)) [µM],ED50 seizure activity [3],"Ki [4, 10] [µM]","Ki [5, 11] [µM]",Ki ([6]; read-out: Ki GluR5-2a),binding affinity for GluR6a subunit [7],Ki ([7]; read-out: Ki GluR6a) [µM],"Ki [8, 12] [µM]","Ki [9, 13] [µM]","convulsant behavior, from the literature [3]",also measured
"NC(CC1(C(=O)O)CC2OCC(O)C(O)C2O1)C(=O)O (stereo not drawn) [9-epi-neoDH, 9-epi-neodysiherbaine]",> 100,> 100,8.6 nmol/mouse,> 100,>100,0.292 µM,do not exhibit measurable affinity,> 100,> 100,>100,,
"N[C@@H](C[C@@]1(C(=O)O)CC2OCC(O)C(O)C2O1)C(=O)O (single isomer, unassigned) [2,4-epi-neoDH, 2,4-epi-neodysiherbaine]",> 100,> 100,11.4 nmol/mouse,,,2.4 µM,,7.7,> 100,> 100,weakly convulsant,"ED50 seizure activity ([3]; listed as 2,4epi-neoDH): 11.4 nmol/mouse; binding to GluR7 receptor [8]: Neither 2,4-epineoDH nor 4-epi-neoDH bound the GluR7 receptor appreciably"
N[C@@H](C[C@]1(C(=O)O)C[C@H]2OC[C@@H](O)C[C@H]2O1)C(=O)O [8-deoxy-neoDH],,,238 pmol/mouse,,,,,,,,,"Ki ([1]; Ki GluR1(i)): > 100 µM; Ki ([2]; Ki GluR2(i)): > 100 µM; Ki [4]: 76 µM; Ki [5]: 36 µM; Ki ([6]; Ki GluR5-2a): 0.0015 µM; Ki ([7]; Ki GluR6a): 48 µM; Ki [8]: 2.9 µM; Ki ([9]; Ki KA2, [3H]kainate displacement): 20 µM"
"N[C@@H](C[C@@]1(C(=O)O)CC2OCC(O)C(O)C2O1)C(=O)O (single isomer, unassigned) [4-epi-neoDH, 4-epi-neodysiherbaine]",> 30,> 30,1.7 nmol/mouse,,,0.559 µM and ~0.56 µM,,6.7,> 100,~30,weakly convulsant,"binding to GluR7 receptor [8]: Neither 2,4-epineoDH nor 4-epi-neoDH bound the GluR7 receptor appreciably"
"NC(CC1(C(=O)O)CC2OCC(O)C(O)C2O1)C(=O)O (stereo not drawn) [8,9-epi-neoDH, 8,9-epi-neodysiherbaine]",> 100,> 100,,> 100,>100,48 µM,,> 100,> 100,>100,,
N[C@@H](C[C@]1(C(=O)O)C[C@H]2OCC[C@@H](O)[C@H]2O1)C(=O)O [9-deoxy-neoDH],> 100,> 100,7.1 nmol/mouse,> 100,> 100,0.169 µM,do not exhibit measurable affinity,> 100,> 100,> 100,,
"N[C@@H](C[C@]1(C(=O)O)C[C@H]2OCCC[C@H]2O1)C(=O)O [MSVIII-19, 8,9-dideoxy-neoDH]",,,6.3 nmol/mouse,,,,do not exhibit measurable affinity,,,,sub-seizure stereotyped behavior followed by unresponsiveness,
"NC(CC1(C(=O)O)CC2OCC(O)C(O)C2O1)C(=O)O (stereo not drawn) [8-epi-neoDH, 8-epi-neodysiherbaine]",16,23,283 pmol/mouse,22,>100,0.034 µM,,22,1.7,>100,,
NC(CC1(C(=O)O)CC2OCC(F)C(O)C2O1)C(=O)O (stereo not drawn) [9-F-8-epi-neoDH],> 100,> 100,374 pmol/mouse,,,0.028 µM,do not exhibit measurable affinity,> 100,> 100,>100,,
